# Measured values: patent US12161616B2, “Combination therapy comprising an omega-3 fatty acid, a folate species and a vitamin B12 species” (Oxford University Innovation Limited, priority 2014, dated 2024)
# Test system: brain atrophy rate in patients with a diagnosis of MCI
# Experiment: VITACOG trial: whole brain atrophy per year from MRI scans (SIENA)
# Type: in vivo, human
# Conditions: for BAR (brain atrophy rate): entire study group
# Method: This study was conducted as a part of the VITACOG trial, ‘Homocysteine and B vitamins in cognitive impairment’, and was carried out according to the principles of the Declaration of Helsinki and received approval of the Oxfordshire NHS research ethics committee A (COREC 04/Q1604/100). All participants gave their written informed consent. The study protocol and participants, along with inclusion and exclusion criteria, have been described in detail elsewhere (Smith et al, PLOS One 2010; 5 (9); e12244.doi10.1371/journal.pone. 0012244). In short, 646 patients above 70 years of age with a diagnosis of MCI were assessed for eligibility. After randomization of eligible subjects, and some withdrawals, 133 started treatment with TrioBe Plus® (0.8 mg folic acid, 0.5 mg vitamin B12, and 20 mg vitamin B6, specifically 0.8 mg folic acid, 0.5 mg cyanocobalamin and 20 mg pyridoxine HCl) while 133 received placebo for a duration of 24 months. Participants were only included in this study if brain atrophy data was available.
# The MRI protocol used in the VITACOG study has been described in detail elsewhere (Smith et al referenced above). In short, baseline and follow-up volumetric cranial MRI scans were carried out at the Oxford Centre for Clinical Magnetic Resonance Research using a 1.5 T MRI system (Sonata; Siemens Medical Solutions, Erlangen, Germany). Whole brain atrophy per year was estimated from MR images taken at baseline and follow-up, using the fully automated SIENA protocol which provides accuracy and robustness. Normalized brain volume at baseline was estimated from a single image using a cross-sectional method (SIENAX), and used as a covariate in the statistical analyses.
# IBM SPSS for Windows, version 20, was used for all statistical analyses (IBM Corp., Armonk, NY, USA). Skewed fatty acids were normalized using their natural logarithms. Unless otherwise stated, fatty acid concentrations at baseline were used for statistical analyses. The main outcome in this study was to investigate the effect of B vitamin treatment on brain atrophy rates, based on baseline omega-3 fatty acid status. Analyses of variance, were used to further examine associations between the fatty acid variables and tHcy and brain atrophy. Two correction models were used. Model A was adjusted for age, sex, and initial brain volume, while model B also adjusted for plasma tHcy, ApoE status, education level, and baseline levels of diastolic blood pressure, triglyceride concentration, and creatinine concentration. When the entire study population was included in the analysis, tHcy measured at follow-up was used as covariate since this measure most likely represents the average tHcy during the trial. When the analysis was confined to the placebo group, tHcy at baseline was used.
# Differences between atrophy rate in the placebo and B vitamin groups were assessed using Student's t test, while brain atrophy rates according to different levels of fatty acids (tertiles), were analyzed using ANCOVA. Where an ANCOVA indicated significant differences between tertiles, Bonferroni corrected post hoc comparisons were made between the lowest and the two higher tertiles. […] P<0.05 was considered statistically significant in all analyses.
# [1] = HIGH tHcy at follow-up, middle baseline tertile, Model A
# [2] = HIGH tHcy at follow-up, middle baseline tertile, Model B
# [3] = HIGH tHcy at follow-up, top baseline tertile, Model A
# [4] = HIGH tHcy at follow-up, top baseline tertile, Model B
# [5] = LOW tHcy at follow-up, middle baseline tertile, Model A
# [6] = LOW tHcy at follow-up, middle baseline tertile, Model B
# [7] = LOW tHcy at follow-up, top baseline tertile, Model A
# [8] = LOW tHcy at follow-up, top baseline tertile, Model B
# [9] = HIGH tHcy at follow-up, lowest baseline tertile (DHA <245 μM, EPA <136 μM), Model A
# [10] = HIGH tHcy at follow-up, lowest baseline tertile (DHA <245 μM, EPA <136 μM), Model B
# [11] = HIGH tHcy at follow-up, middle baseline tertile (DHA 245-345 μM, EPA 136-222 μM), Model A
# [12] = HIGH tHcy at follow-up, middle baseline tertile (DHA 245-345 μM, EPA 136-222 μM), Model B
# [13] = HIGH tHcy at follow-up, top baseline tertile (DHA >345 μM, EPA >222 μM), Model A
# [14] = HIGH tHcy at follow-up, top baseline tertile (DHA >345 μM, EPA >222 μM), Model B
# [15] = LOW tHcy at follow-up, lowest baseline tertile (DHA <245 μM, EPA <136 μM), Model A
# [16] = LOW tHcy at follow-up, lowest baseline tertile (DHA <245 μM, EPA <136 μM), Model B
# [17] = LOW tHcy at follow-up, middle baseline tertile (DHA 245-345 μM, EPA 136-222 μM), Model A
# [18] = LOW tHcy at follow-up, middle baseline tertile (DHA 245-345 μM, EPA 136-222 μM), Model B
# [19] = LOW tHcy at follow-up, top baseline tertile (DHA >345 μM, EPA >222 μM), Model A
# [20] = LOW tHcy at follow-up, top baseline tertile (DHA >345 μM, EPA >222 μM), Model B
SMILES,Percent change of BAR compared to the lowest fatty acid tertile [1] [%],Percent change of BAR compared to the lowest fatty acid tertile [2] [%],Percent change of BAR compared to the lowest fatty acid tertile [3] [%],Percent change of BAR compared to the lowest fatty acid tertile [4] [%],Percent change of BAR compared to the lowest fatty acid tertile [5] [%],Percent change of BAR compared to the lowest fatty acid tertile [6] [%],Percent change of BAR compared to the lowest fatty acid tertile [7] [%],Percent change of BAR compared to the lowest fatty acid tertile [8] [%],BAR (brain atrophy rate) [9],BAR (brain atrophy rate) [10],BAR (brain atrophy rate) [11],BAR (brain atrophy rate) [12],BAR (brain atrophy rate) [13],BAR (brain atrophy rate) [14],BAR (brain atrophy rate) [15],BAR (brain atrophy rate) [16],BAR (brain atrophy rate) [17],BAR (brain atrophy rate) [18],BAR (brain atrophy rate) [19],BAR (brain atrophy rate) [20]
"CC/C=C\C/C=C\C/C=C\C/C=C\C/C=C\CCCC(=O)O [20:5n-3 (EPA), Eicosapentaenoic acid]",18,11,9.5,4.3,−30,−27,−33,−40,1.02 percent brain whole brain reduction per year,0.98 percent brain whole brain reduction per year,1.19 percent brain whole brain reduction per year,1.20 percent brain whole brain reduction per year,1.11 percent brain whole brain reduction per year,1.13 percent brain whole brain reduction per year,1.07 percent brain whole brain reduction per year,1.14 percent brain whole brain reduction per year,0.73 percent brain whole brain reduction per year,0.76 percent brain whole brain reduction per year,0.69 percent brain whole brain reduction per year,0.63 percent brain whole brain reduction per year
"CC/C=C\C/C=C\C/C=C\C/C=C\C/C=C\C/C=C\CCC(=O)O [22:6n-3 (DHA), Docosahexaenoic acid]",7.7,5.7,8.6,0.4,−34,−36,−37,−43,1.08 percent brain whole brain reduction per year,1.06 percent brain whole brain reduction per year,1.12 percent brain whole brain reduction per year,1.14 percent brain whole brain reduction per year,1.13 percent brain whole brain reduction per year,1.08 percent brain whole brain reduction per year,1.09 percent brain whole brain reduction per year,1.20 percent brain whole brain reduction per year,0.71 percent brain whole brain reduction per year,0.70 percent brain whole brain reduction per year,0.68 percent brain whole brain reduction per year,0.62 percent brain whole brain reduction per year
